Laboratory results from article PMC10591299, “Targeting SHP2 with an Active Site Inhibitor Blocks Signaling and Breast Cancer Cell Phenotypes” (ACS Bio & Med Chem Au, 2023).

Experiments:
[1] = target: T1, FL-SHP2 (Homo sapiens, UniProt Q06124); assay: PTPase assay on FLAG-tagged full-length SHP2 immunoprecipitated from MDA-MB468 cells; format: biochemical; conditions: FLAG-tagged FL-SHP2 on beads from MDA-MB468 cells, 20 μM DiFMUP
T1 construct: whether CNBCA is also effective against full-length SHP2 (FL-SHP2); expressed in transfected cells; host or cells: MDA-MB468
T1 sequence (Q06124 1-593): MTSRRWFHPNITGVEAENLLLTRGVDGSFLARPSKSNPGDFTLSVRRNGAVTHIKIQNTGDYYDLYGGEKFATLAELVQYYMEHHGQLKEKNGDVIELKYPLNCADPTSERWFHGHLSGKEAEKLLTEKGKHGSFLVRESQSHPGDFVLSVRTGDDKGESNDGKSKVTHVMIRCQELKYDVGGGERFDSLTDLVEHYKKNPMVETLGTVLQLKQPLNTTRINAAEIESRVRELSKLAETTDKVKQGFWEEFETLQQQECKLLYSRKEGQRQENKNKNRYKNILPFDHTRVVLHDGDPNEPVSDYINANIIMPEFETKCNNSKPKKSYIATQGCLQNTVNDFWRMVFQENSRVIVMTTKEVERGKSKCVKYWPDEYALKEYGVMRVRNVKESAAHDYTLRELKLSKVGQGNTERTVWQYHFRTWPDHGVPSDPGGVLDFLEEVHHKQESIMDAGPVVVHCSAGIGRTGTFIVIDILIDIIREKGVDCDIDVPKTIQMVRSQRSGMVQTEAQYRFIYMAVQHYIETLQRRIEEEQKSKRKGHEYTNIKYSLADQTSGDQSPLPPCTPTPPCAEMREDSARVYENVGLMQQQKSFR
From the text: To confirm efficiency of the expression, we conducted IB analysis of total protein extracts (TPE) prepared from the noncancerous MEF cells (mouse embryo fibroblasts), the MDA-MB468 BC cells that overexpress EGFR, and the BT474 BC cells that overexpress HER2. […] We also performed HER2 and EGFR IB analyses, which confirmed overexpression of these RTKs in the BC cells, but not in the MEF cells. […] Next, FL-SHP2 was immunoprecipitated (IP) with anti-FLAG antibody from the TPEs of the three cells (Figure 3F) and used for determining the activation state while still bound to protein-A sepharose beads, as described in the materials and methods. […] We thus used SHP2 expressed in BC cells to test the inhibitory effect of CNBCA on FL-SHP2. […]
For determining the inhibitory effect of CNBCA on FL-SHP2, a FLAG-tagged protein ectopically expressed in the EGFR overexpressing MDA-MB468 cells[8],[15] was used as an enzyme. […] After 20 min of incubation at 37 °C, 100 μL of the supernatant from each sample was transferred to 96-well plates, and fluorescence intensity measure as above, using the Synergy 4 plate reader. The resulting data was then analyzed with the Graphpad Prism software to draw the graph and determine the IC50 value.

[2] = target: T2, SHP2 (Homo sapiens, UniProt Q06124); assay: Cellular thermal shift assay (CETSA), SHP2 immunoblot; format: binding; conditions: 100 μM CNBCA, cell lysate
T2 construct: endogenous in cells
T2 sequence (Q06124 1-593): T1 sequence (Q06124 1-593)
From the text: First, we used the cellular thermal shift assay (CETSA) to show whether CNBCA binds to endogenous full-length SHP2 under cellular contexts. The CETSA assay is based on the principle that specific inhibitors bind to a target protein and confer relative stability from heat-induced denaturation and precipitation when compared to a nontarget protein present in the same milieu.[34] Accordingly, we performed CETSA to test the effect of CNBCA on the SHP2 protein stability and compared it with the nontarget PTP1B protein as described in the materials and methods.
After heat treatment, supernatants were analyzed by immunoblotting (IB) for SHP2 and the nontarget phosphatase PTP1B. […] To provide semiquantitative data, band densities of both SHP2 and PTP1B were measured and presented as bar graph. […] On the other hand, the nontarget protein PTP1B was reduced to approximately 50% at 49 °C, to 25% at 55 °C, and to less than 10% at 58 °C (Figure 3B and D).
For the CETSA study, total protein extracts (TPE) prepared from two breast cancer cells, the triple-negative MDA-MB468 and the HER2-positive JIMT-1 cells, were used. Briefly, TPE from the two cell lines were cleared by centrifugation, mixed with CNBCA at 100 μM concentration (the maximum amount used in the IC50 studies), and incubated for 10 min at room temperature to allow binding. The mixture was then divided into 100 μL aliquots, treated with heat for 10 min at different temperatures, ranging from 37 to 64 °C that differ by 3 °C intervals, cooled on ice for 10 min, centrifuged at 20,000g for 20 min to remove precipitated proteins, and the supernatants analyzed by immunoblotting (IB) for SHP2 and the nontarget PTP, PTP1B. Aliquots that were mixed with CNBCA, but not treated with heat were used as positive controls for comparison.

- IC50 [1]: 0.615 µM
- SHP2 stabilized in solution (band density) ([2]; heat 49 °C 10 min): ~100%
- SHP2 stabilized in solution (band density) ([2]; heat 52 °C 10 min): 95%
- SHP2 stabilized in solution (band density) ([2]; heat 55 °C 10 min): 70%
- SHP2 stabilized in solution (band density) ([2]; heat 58 °C 10 min): 45%
Structure (SMILES): CCCCCCCCCOc1ccc(-c2ccc(C(=O)O)cc2)cc1CCCC(=O)O [CNBCA, 3′-(3-carboxypropyl)-4′-(nonyloxy)-[1,1′-biphenyl]-4-carboxylic acid]
